From patent publication US7652032B2, “5-Thioxylopyranose compounds” (Laboratoires Fournier S.A., priority 2007, dated 2010)

The molecules below were run on venous thrombosis (assay: venous thrombosis test in rats (venous stasis with hypercoagulation, Wessler technique, factor Xa), oral administration). Details: dose 6 mg/kg, thrombosis induced 2 h after administration, male Wistar rats.
Type: in vivo
Experimental: The antithrombotic activity of the compounds according to the invention was studied in vivo in rats by virtue of a test that reproduces a venous thrombosis. The venous thrombosis was induced according to the protocol described in Thromb. Haemost. 1992, 67 (1), 176-179. The activity by oral administration was studied according to the following operating protocol: The experiment is carried out on male Wistar rats, not fasting, weighing 250 to 280 g and divided up into groups, each of 8 to 10 animals. The test products are administered orally (by tube) in solution or in suspension in a solution of methylcellulose (0.5% in water). The concentration of the compounds is calculated such that an amount of solution of 10 ml/kg is absorbed orally. A thrombosis is induced at a time T (between 2 hours and 8 hours) after administration of the product, and the thrombus formed is removed and weighed. In order to induce this thrombosis, a venous stasis with hypercoagulation is produced, according to the technique described by WESSLER (J. Applied Physiol. 1959, 943-946) using, as hypercoagulating agent, a solution of activated factor X (Xa), supplied by the company Biogenic (Montpellier), and having a concentration of 7.5 nKat/kg. The venous stasis is produced exactly 10 seconds after the injection of the hypercoagulating agent. The activity of the compounds tested was verified at various doses, after they were administered. The thrombosis was induced between 2 hours and 8 hours after administration of the compound.

Row | SMILES | Activity (%): percentage inhibition of the formation of the thrombus relative to the weight of the thrombus formed in the absence of the compound [%]
1 | O[C@@H]1[C@@H](O)[C@H](Oc2cccc3ocnc23)SC[C@H]1O [Example 16, 4-benzoxazolyl 5-thio-β-D-xylopyranoside] | 80
2 | Cc1nc2cc(O[C@@H]3SC[C@@H](O)[C@H](O)[C@H]3O)ccc2s1 [Example 12, 2-methyl-5-benzothiazolyl 5-thio-β-D-xylopyranoside] | 74
3 | CC(=O)c1cc2cccc(O[C@@H]3SC[C@@H](O)[C@H](O)[C@H]3O)c2o1 [Example 8, 2-acetyl-7-benzofuranyl 5-thio-β-D-xylopyranoside] | 91
4 | O=C(O)C(F)(F)F.O=C(O)Cc1cn2cccc(O[C@@H]3SC[C@@H](O)[C@H](O)[C@H]3O)c2n1 [Example 43, 8-[(5-thio-β-D-xylopyranosyl)oxy]-imidazo[1,2-α]pyridine-2-acetic acid, salt with trifluoroacetic acid] | 53
5 | Cc1cn2cccc(O[C@@H]3SC[C@@H](O)[C@H](O)[C@H]3O)c2n1 [Example 2, 2-methylimidazo[1,2-α]pyridin-8-yl 5-thio-β-D-xylopyranoside] | 94
6 | O[C@@H]1[C@@H](O)[C@H](Oc2cccn3ncnc23)SC[C@H]1O [Example 39, [1,2,4]triazolo[1,5-a]pyridin-8-yl 5-thio-β-D-xylopyranoside] | 100
7 | O[C@@H]1[C@@H](O)[C@H](Oc2cccc3ccoc23)SC[C@H]1O [Example 18, 7-benzofuranyl 5-thio-β-D-xylopyranoside] | 62
